According to patent US9140692B1, “Methods of identifying glycopeptides recognized by disease-associated auto-antibodies” (Glycozym, Inc., priority 2010, dated 2015):
Entries after “also recorded” stand apart in the source; their conditions may differ.

Tests used:
[1] = tested on: human IgG antibodies from cancer patients; assay: Microarray screening of the larger GalNAc O-glycopeptide library (Table III) with human cancer and control sera; type: binding; conditions: for reactivity with IgG from newly diagnosed cancer patients compared to normal control sera: FIG. 6, sera at 1:20 dilution, anti-human-IgG Cy3; for reactivity with human IgG from cancer patients compared to controls: resynthesized glycopeptides printed at 50 μM, cancer sera and 145 control normal sera
From the text: FIG. 6A: glycopeptides 889 (SEQ ID NO: 134), 275a (SEQ ID NO: 86), and 585 (SEQ ID NO: 109). FIG. 6B: glycopeptides 893 (SEQ ID NO: 135), 931-C3 (SEQ ID NO: 146), and 852-C3 (SEQ ID NO: 145). FIG. 6C: gycopeptides 873 (SEQ ID NO: 132) and 690 (SEQ ID NO: 116). The following human sera were used for FIGS. 6A and 6B: 32 ovarian cancer (O), 38 breast cancer (B), 54 colon cancer (C), 17 lung cancer (L), as well as 145 normal sera (N) (Asterand Corp). The following sera were used for FIG. 6C: 32 ovarian cancer (O), 38 breast cancer […], 54 colon cancer (C), 42 lung cancer (L), 52 pancreactic cancer (Pn), 35 prostatic cancer (Pr), 8 inflammatory disease (In), 8 benign controls (Bn), and 145 healthy controls (N). Sera were screened at 1:20 dilution. Anti-human-IgG conjugated to Cy3 was used as the secondary detection unit and slides were scanned with a GenePix 4200AL Microarray Scanner.
A larger library of GalNAc O-glycopeptides designed with GalNAc linked to serine or threonine at position 12 in 20-mer peptides was produced as described in Example 1. Peptides were selected among cell membrane and secreted human proteins that contain serine and threonine residues that are predicted to be O-glycosylated by the NetOGlyc algorithm (Julenius et al. 2005). A total of 960 GalNAc glycopeptides were synthesized at 0.5 mg scale (Sigma) and printed on microarray hydrogel slides (Schott Nexterion) as described in Example 1. Slides were reacted with human cancer sera (ovarian, breast, colon, lung, pancreas, prostate, 235 total sera) and control sera (145 healthy, 20 inflammatory, 20 benign tumor). Glycopeptides preferentially reactive with human IgG antibodies from cancer patients compared to controls were selected for resynthesis at 5 mg scale with amidated C-terminus (New England Peptide (Gardner, Mass.) (Table III). Resynthesized glycopeptides were reprinted on microarray slides at 50 μM and reacted with human cancer sera (Total 286 sera: 32 ovarian cancer (O), 38 breast cancer (B), 54 colon cancer (C), 17 lung cancer (L), and 145 age and sex matched control normal sera as described in Example 1. Table III lists glycopeptides exclusively or preferentially reactive with human IgG from cancer patients compared to controls and examples of reactivities are shown in FIG. 6.
Since IgG antibodies reactive with glycopeptides epitopes recognize both the peptide sequence in close proximity to the O-glycan (i.e., one to five or even eighth residues N- and C-terminal of the O-glycan) as well as the O-glycan structure, it is clear that different glycoforms of one glycopeptide may be recognized by different IgG antibodies and these antibodies may be found in different cancer patients. In this Example, GalNAc-glycopeptides from MUC1 and MUC4 were also produced as the core 3 GlcNAcβ1-3GalNAcα1-O-Ser/Thr glycoform with a recombinant core 3 synthase as described in Example 1.

[2] = tested on: human IgG antibodies (cancer-associated auto-antibodies in serum); assay: Glycopeptide microarray screening of the 96 paired peptide/GalNAc-glycopeptide library with human sera; type: binding; conditions: serum of newly diagnosed prostate cancer patient #762, 1:25 dilution, labeled anti-human IgG; FIG. 2
From the text: A panel of human sera was obtained from CHTN (Cooperative Human Tissue Network) and Asterand Inc., under the guidelines of approved agreements by the providers. Sera obtained were from control individuals (“normal”) (n=31) and from newly diagnosed cancer patients (n=147) with pancreatic, breast, colon, lung, prostate or ovary primary cancers. Briefly, for cancer sera, all blood samples were obtained on or near date of diagnosis, and serum was processed immediately, flash frozen and stored at −70° C. until shipment. Serum samples received from the providers as frozen aliquots generally of 1-2 mL were brought to room temperature, vortexed and distributed into 20-100 μL aliquots in closeable Eppendorf tubes (vWR) (pre-labeled), and immediately frozen and stored at −70° C. until use.
Glycopeptides (20-mers with and without a single GalNAc residue at position 12) and control structures (corresponding unglycosylated peptides) were printed on Corning (Corning, N.Y.), Scienion (Germany) or Schott Nexterion® Slide H or Schott Nexterion® Slide H MPX 16 (Schott AG, Mainz, Germany) by JPT (Germany). Triplicates or quadruplicates of all compounds were printed at optimal concentrations (1-50 μM) or 50× excess relative to scale of synthesis for spot-synthesized glycopeptides printed without purification. After printing, slides were incubated for 1 hour (h) in a humidified hybridization chamber with 70-100% relative humidity and stored until use at 4° C. Unspotted slide areas were blocked for 1 h with 25 mM ethanolamine in 100 mM sodium borate pH 8.5. If an enzyme step was needed either to increase sites of GaLNac attachments in peptides or extend O-glycans to T, STn, core 3 or other structures, addition of the enzyme reaction mixture in 25-35 μL was made in appropriate wells and the slide incubated at 37° C. for 1 h, after which it was washed in PBS/0.05% Tween and then PBS, and then spun dry.
Human sera (usually diluted 1:25), monoclonal antibodies, lectins and the like were added in 25 μL and the slide left at room temperature for 2 h in a moist, humid chamber after which it was washed as above and spun dry (if no superstructure). Secondary antibodies were added at appropriate concentrations (for human sera, usually 1:1500 for anti-human IgG with a Cy3 chromophore). In some cases, for some controls, lectin-Cy3 was used directly as final step. The final step was washing as above, with a brief de-ionized water wash and the slide spun dry for scanning Analysis was made on a GenePix 4200AL Scanner at PMT 400 and power mode 10-50. Data were analyzed and plotted using Microsoft Excel.
Glycopeptides (20-mers with and without a single GalNAc residue at position 12) were printed in triplicates (horizontal) on Scineon 16-well slides by JPT (Germany) and bound human IgG antibodies detected by a labeled secondary anti-human IgG antibody. FIG. 2 illustrates examples of reactivities of serum (1:25 dilution) from a newly diagnosed prostate cancer patient (#762 in Panel A) and a normal control serum from a healthy individual (#174 in Panel B) on the library of 96 paired peptides/GalNAc-glycopeptides as designated in Table II. Candidate cancer-associated IgG antibodies identified in the cancer serum directed to GalNAc glycopeptide epitopes are indicated by open circles labeled 20/21, 62/63, and 86/87 for the paired peptide and GalNAc glycopeptides, respectively. […]
FIG. 4 illustrates results of screening 147 cancer sera and 31 normal sera on the glycopeptide pair #62/63. FIG. 5 illustrates results of screening 147 cancer sera and 31 normal sera on the glycopeptide pair #86/87.

Substance	reactivity with IgG from newly diagnosed cancer patients compared to normal control sera [1]	reactivity with human IgG from cancer patients compared to controls [1]	reactivity of serum IgG antibodies with printed peptide/GalNAc-glycopeptide [2]
H2N-ASRYNLTISDVSVSDVPFPF-amide (H-ASRYNLTISDVSVSDVPFPF-NH2; also: O-GalNAc glycopeptide, sites not given here) [Peptide 893]	reactive with IgG from newly diagnosed cancer patients	–	–
H2N-HDVETQFNQYKTEAASRYNL-amide (H-HDVETQFNQYKTEAASRYNL-NH2; also: O-GalNAc glycopeptide, sites not given here) [Peptide 889]	reactive with IgG from newly diagnosed cancer patients	–	–
H2N-LAKMYYSAVEPTKDIFTGLI-amide (H-LAKMYYSAVEPTKDIFTGLI-NH2; also: O-GalNAc glycopeptide, sites not given here) [Peptide 275a]	reactive with IgG from newly diagnosed cancer patients	–	–
H2N-PGTSTTPSQPNSAGVQDTEM-amide (H-PGTSTTPSQPNSAGVQDTEM-NH2; also: O-GalNAc glycopeptide, sites not given here) [Peptide 690]	reactive with IgG from newly diagnosed cancer patients	–	–
H2N-SLASQATDIFST[GlcNAc] VPPTPPSI-amide [Peptide 931-C3]	reactive with IgG from newly diagnosed cancer patients	exclusively recognized by IgG antibodies in sera from cancer patients	–
H2N-TDCGGPKDHPLTCDDPRFQA-amide (H-TDCGGPKDHPLTCDDPRFQA-NH2; cysteine pairing not given here; also: O-GalNAc glycopeptide, site not shown) [Peptide 585]	reactive with IgG from newly diagnosed cancer patients	–	–
H2N-TKTDASSTHHSTVPPLTSSN-amide (H-TKTDASSTHHSTVPPLTSSN-NH2; also: O-GalNAc glycopeptide, sites not given here) [Peptide 873]	reactive with IgG from newly diagnosed cancer patients	–	–
H2N-VPVTRPALGSTT[GlcNAc] PPAHDVTS-amide (H-VPVTRPALGSTTPPAHDVTS-NH2; not fully specified (residue 12)) [Peptide 852-C3]	reactive with IgG from newly diagnosed cancer patients	exclusively recognized by IgG antibodies in sera from cancer patients	–
SESFPHPGFNMSLLENHTRQ [Peptide 86, derived from KLK1]	–	–	do not react; also recorded: not the corresponding peptide
SESFPHPGFNMSLLENHTRQ [Peptide 87, derived from KLK1]	–	–	specifically reacting; also recorded: labels
SHHSDESDELVTDFPTDLPA [Peptide 20, derived from SPP1]	–	–	do not react; also recorded: not the corresponding peptide
SHHSDESDELVTDFPTDLPA [Peptide 21, derived from SPP1]	–	–	specifically reacting; also recorded: labels
TPTPKEKPEAGTYSVNNGND [Peptide 62, derived from LAMP2]	–	–	do not react; also recorded: not the corresponding peptide
TPTPKEKPEAGTYSVNNGND [Peptide 63, derived from LAMP2]	–	–	specifically reacting; also recorded: labels
